Assay results: paper PMC11403616, “Arcopilins: A New Family of Staphylococcus aureus Biofilm Disruptors from the Soil Fungus Arcopilus navicularis” (Journal of Medicinal Chemistry, 2024)
≈ marks a conversion by molar mass, not a printed value. Entries after “also recorded” stand apart in the source; their conditions may differ. Marks after values point to notes of the source that are not given here.

How the values were obtained:
S. aureus DSM 1104 = assay: MIC against bacteria (antimicrobial assay); format: cell-based, Staphylococcus aureus
Text: The tested microorganisms comprised a diverse array of clinically relevant pathogens, encompassing sensitive indicator strains. Among the Gram-positive bacteria were Bacillus subtilis, Staphylococcus aureus, and Mycolicibacterium smegmatis. Gram-negative bacteria included Acinetobacter baumannii, Chromobacterium violaceum, Escherichia coli, and Pseudomonas aeruginosa. Additionally, filamentous fungi such as Mucor hiemalis and yeasts including Candida albicans, Wickerhamomyces anomalus, Rhodotorula glutinis, and Schizosaccharomyces pombe were included.
(§1) The antimicrobial and cytotoxic assays were performed according to the methods reported previously.[57]

S. aureus DSM 346 = assay: MIC against bacteria (antimicrobial assay); format: cell-based, Staphylococcus aureus; details: for MIC: Staphylococcus aureus, DSM346, DSM 346, – = no activity observed under test conditions
Procedure: (§2) The antimicrobial activities of compounds 1–7 (Acp A–G) were assessed against different bacterial and fungal strains in addition to their cytotoxic effects on two mammalian cell lines. The tested microorganisms comprised a diverse array of clinically relevant pathogens, encompassing sensitive indicator strains. Among the Gram-positive bacteria were Bacillus subtilis, Staphylococcus aureus, and Mycolicibacterium smegmatis. Gram-negative bacteria included Acinetobacter baumannii, Chromobacterium violaceum, Escherichia coli, and Pseudomonas aeruginosa. Additionally, filamentous fungi such as Mucor hiemalis and yeasts including Candida albicans, Wickerhamomyces anomalus, Rhodotorula glutinis, and Schizosaccharomyces pombe were included. Generally, all compounds presented similar biological properties, summarized in weak or no activity against fungal pathogens as well as weak to moderate inhibition of Gram-positive bacteria (Table 2).
as §1

[1] = system: preformed biofilms of S. aureus DSM 1104; assay: Disruption of preformed biofilms, crystal violet assay; format: cell-based, Staphylococcus aureus
Procedure: Therefore, Acp A–G were evaluated against preformed biofilms of S. aureus using crystal violet staining.[47]
Cultures of S. aureus DSM 1104 were prepared by inoculating 1 mL aliquots from a frozen stock (−20 °C) into 25 mL of CASO medium and incubating them overnight at 37 °C with shaking at 130 rpm.
The crystal violet assay was performed according to a previously reported procedure.[47] Arcopilins A–G were tested in serial dilutions (250–2 μg/mL), with methanol and microporenic acid A (MAA) as negative and positive controls, respectively. Statistical differences between samples and the controls were determined using a two-tailed Student’s t test, with statistical significance defined as p < 0.01. Statistical analysis was carried out using GraphPad Prism 9 (GraphPad Software, San Diego, CA).[58]

M. hiemalis DSM 2656 = assay: MIC against fungi (antimicrobial assay); format: cell-based, Mucor hiemalis
Procedure: as §2, §1

[2] = system: planktonic cells of S. aureus DSM 1104; assay: Checkerboard broth dilution assay (FICI); format: cell-based, Staphylococcus aureus; details: for MIC: Staphylococcus aureus, DSM1104, compound alone, read-out: MIC of each single compound (MICs)
Text: After assessing the effects of Acp A on the pathogen S. aureus, we delved deeper into the interaction of Acp A with established antibiotics (GM and Vac). This exploration focused on both planktonic cells and preformed biofilms of S. aureus. Consequently, we used a checkerboard assay to determine the fractional inhibitory concentration index (FICI) for combinations involving Acp A, GM, or Vac based on both their MIC values in combination.[49]
The interaction between arcopilin A, vancomycin, and gentamicin against S. aureus DSM 1104 was evaluated using a checkerboard broth dilution method to determine the fractional inhibitory concentration indices (FICIs), calculated as FIC = MIC of drug A in combination/MIC of drug A alone + MIC of drug B in combination/MIC of drug B alone.[59] The FICIs were interpreted as synergistic (FICI ≤ 0.5). For this assay, a seed culture was prepared as previously described to inoculate fresh CASO with 4% glucose broth to match the turbidity of a 0.1 McFarland standard suspension. Then, 100 μL of bacterial suspension was distributed in 96-well nontissue microtiter plates (TPP nontissue culture ref no. 92197, Switzerland). Arcopilin A (7.8–2 μg/mL) and antibiotics (vancomycin and gentamicin: 31.3–0.016 μg/mL) were added in increasing concentrations in columns and rows, respectively. The experiments were conducted in duplicate.

[3] = system: preformed biofilm cells of S. aureus DSM 1104; assay: XTT assay, metabolic activity in preformed biofilm cells; format: cell-based, Staphylococcus aureus; details: 24 h treatment
Procedure: The seed culture of S. aureus DSM 1104 was prepared as previously described, and its OD600 was adjusted to match the turbidity of a 0.001 McFarland standard. Next, 150 μL of this bacterial solution in CASO with 4% glucose broth was incubated in 96-well tissue plates (TPP tissue culture ref no. 92196, Switzerland) for 24 h at 150 rpm. After incubation, the supernatant was discarded and 150 μL of the fresh media was added to the wells, along with serially diluted arcopilin A (31.3–0.5 μg/mL). The plate was further incubated for 24 h. Afterward, XTT (Cell profile XTT kit, Roche, Switzerland) was prepared in phosphate-buffered saline (PBS) at a final concentration of 0.3 mg/mL. The plate was washed three times with PBS buffer, and then, 150 μL of the prepared XTT solution was added to each well. Plates were further incubated for an additional 4 h at 37 °C while shaking (150 rpm), and absorbance was measured at 490 nm using a plate reader (Synergy 2, BioTek, Santa Clara). Methanol (2.5%) was used as the solvent control. Error bars indicate the standard deviation (SD) of duplicate with two repeats.

C. albicans DSM 1665 = assay: MIC against fungi (antimicrobial assay); format: cell-based, Candida albicans
Procedure: as §2, §1

B. subtilis DSM 10 = assay: MIC against bacteria (antimicrobial assay); format: cell-based, Bacillus subtilis
Procedure: as §2, §1

KB-3-1 (ACC 158) = assay: Cytotoxicity against mammalian cell lines; format: cell-based; details: Homo sapiens, KB 3-1; ACC 158; – = no activity observed under test conditions; read-out: IC50 against mammalian cell lines, KB-3-1
Procedure: as §2, §1

L929 (ACC 2) = assay: Cytotoxicity against mammalian cell lines; format: cell-based; details: Mus musculus, L929; ACC 2; – = no activity observed under test conditions; read-out: IC50 against mammalian cell lines, L929
Procedure: as §2, §1

S. pombe DSM 70572 = assay: MIC against fungi (antimicrobial assay); format: cell-based, Schizosaccharomyces pombe
Procedure: as §2, §1

[4] = system: preformed biofilms of S. aureus DSM 1104; assay: CFU count analysis, synergistic effects on preformed biofilms; format: cell-based, Staphylococcus aureus; details: Acp A 7.8–3.9 μg/mL, GM 7.8–2 μg/mL, Vac 15.6–3.9 μg/mL
Procedure: The seed culture of S. aureus DSM 1104 was prepared as previously described, and the OD600 was adjusted to match the turbidity of a 0.001 McFarland standard. Then, 150 μL of bacterial solution in CASO with 4% glucose broth was incubated in 96-well tissue plates (TPP tissue culture ref no. 92196, Switzerland) for 24 h at 150 rpm. […] Methanol (2.5%) was used as the solvent control. The plates were incubated for a further 24 h at 37 °C. Colony-forming unit (CFU) count analysis of arcopilin A, antibiotics (vancomycin and gentamicin), and their combinations was performed as previously described.[58] Cells were suspended in the well 50 times. Dilution series in 1 to 10 steps (20 μL in 200 μL) were prepared down to a final dilution level of 10^–6, and 100 μL of this last dilution was platted on LB agar plates using 3 mm small glass beads (5 to 10, Omnilab, Germany) to homogeneously spread the liquid. Individual colonies on agar plates were counted after incubation at 30 °C for 24 and 48 h.[60] Afterward, CFUs were calculated by considering the dilution factors. Error bars indicate the SD of duplicate with two repeats.

C. violaceum DSM 30191 = assay: MIC against bacteria (antimicrobial assay); format: cell-based; details: Chromobacterium violaceum, DSM30191, – = no activity observed under test conditions
Procedure: as §2, §1

E. coli DSM 1116 = assay: MIC against bacteria (antimicrobial assay); format: cell-based; details: Escherichia coli, DSM1116, – = no activity observed under test conditions
Procedure: as §2, §1

R. glutinis DSM 10134 = assay: MIC against fungi (antimicrobial assay); format: cell-based, Rhodotorula glutinis; details: – = no activity observed under test conditions
Procedure: as §2, §1

W. anomalus DSM 6766 = assay: MIC against fungi (antimicrobial assay); format: cell-based, Wickerhamomyces anomalus; details: – = no activity observed under test conditions
Procedure: as §2, §1

[5] = supplement CSV, decimal comma, unit not given, in µg/mL

CC(=O)[C@H](C)C[C@@H](C)C[C@H](C)C(=O)C1=C(O)/C(=C/c2ccccc2)NC1=O [Acp A, Arcopilin A]
MIC (S. aureus DSM 1104; Staphylococcus aureus, DSM1104, DSM 1104): 31.3 µg/mL (≈ 84.7 µM)
MIC S. aureus (S. aureus DSM 1104; supplement CSV, second S. aureus column (value matches DSM 1104 of Table 2), decimal comma, unit not given, in µg/mL): 31,3
MIC (S. aureus DSM 346): 66.7 µg/mL (≈ 181 µM)
MIC S. aureus (S. aureus DSM 346; supplement CSV, S. aureus, decimal comma, unit not given, in µg/mL): 66,7
efficacy toward preformed biofilms ([1]; at 3.9 μg/mL): 35–45%
efficacy toward preformed biofilms ([1]; concentration range 15.6 to 250 μg/mL): 50–60%
disrupting effect on preformed biofilms (in words) ([1]; tested 250–2 μg/mL): most promising disrupting effects; also recorded: remarkable effectiveness
MIC (M. hiemalis DSM 2656; Mucor hiemalis, DSM2656, DSM 2656, – = no activity observed under test conditions): 66.7 µg/mL (≈ 181 µM)
MIC M. hiemalis (M. hiemalis DSM 2656; [5]): 66,7
MIC [2]: 31.3 µg/mL
decrease of the MIC value when combined with each antibiotic ([2]; combined with GM or Vac): ~10 fold
lowest concentration with significant reduction in metabolic activity [3]: 3.9 µg/mL
MIC (C. albicans DSM 1665; Candida albicans, DSM1665, DSM 1665, – = no activity observed under test conditions): 66.7 µg/mL (≈ 181 µM)
MIC C. albicans (C. albicans DSM 1665; [5]): 66,7
MIC (B. subtilis DSM 10; Bacillus subtilis, DSM10, DSM 10, – = no activity observed under test conditions): 66.7 µg/mL (≈ 181 µM)
MIC B. subtilis (B. subtilis DSM 10; [5]): 66,7
IC50 (KB-3-1 (ACC 158)): 8.9 µg/mL (≈ 24.1 µM)
IC50 (L929 (ACC 2)): 14 µg/mL (≈ 37.9 µM)
MIC (S. pombe DSM 70572; Schizosaccharomyces pombe, DSM70572, DSM 70572, – = no activity observed under test conditions): 66.7 µg/mL (≈ 181 µM)
MIC S. pombe (S. pombe DSM 70572; [5]): 66,7

CNC(C)C1CCC(N)C(OC2C(N)CC(N)C(OC3OCC(C)(O)C(NC)C3O)C2O)O1 (stereo not drawn) [Gentamicin]
MIC (S. aureus DSM 346): 0.4 µg/mL (≈ 0.838 µM)
improvement in the inhibitory effects in combination with Acp A [4]: ~3 fold
increase of the potency of the antibiotic in combination with Acp A ([2]; Acp A 3.9 μg/mL, MIC alone versus in combination): up to 115 fold
FICI, Acp A and GM ([2]; FICI < 0.5: synergistic, value belongs to the combination): < 0.5
MIC [2]: 15.6 µg/mL
MIC in combination (MICc), Acp A and GM ([2]; combination of Acp A (3.9 μg/mL) with GM): 0.13 µg/mL
MIC (C. violaceum DSM 30191): 0.42 µg/mL (≈ 0.879 µM)
MIC (E. coli DSM 1116): 1.7 µg/mL (≈ 3.56 µM)

C[C@@H]1[C@H](O)[C@@H](C)/C=C/C=C/CC/C=C/C=C/C=C/C=C/C(O[C@H]2O[C@H](C)[C@@H](O)[C@H](N)[C@@H]2O)CC2O[C@](O)(CC(O)C(O)CCC(O)CC(O)CC(O)CC(=O)O[C@H]1C)CC(O)C2C(=O)O (stereo partly drawn) [Nystatin, reference compound]
MIC against fungi, R. glutinis (R. glutinis DSM 10134): 4.2^e μg/mL
MIC against fungi, M. hiemalis (M. hiemalis DSM 2656; DSM 2656, – = no activity observed under test conditions): 8.3^e μg/mL
MIC against fungi, W. anomalus (W. anomalus DSM 6766): 8.3^e μg/mL
MIC against fungi, C. albicans (C. albicans DSM 1665; DSM 1665, – = no activity observed under test conditions): 8.3^e μg/mL
MIC against fungi, S. pombe (S. pombe DSM 70572; DSM 70572, – = no activity observed under test conditions): 4.2^e μg/mL
